Test results reported in patent US12496348B2, “Small molecule target bromo/acetyl proteins and uses thereof” (DANA-FARBER CANCER INSTITUTE, INC., priority 2019, dated 2025).
Where two headings read alike, the source gives them in different places.

Columns and labels:
[1] = tested on: Kelly Neuroblastoma cells; experiment: ATPlite Luminescence viability assay, Kelly neuroblastoma cells, 72 h; assay type: cell-based; settings: for IC50: ATPlite; for IC50 values (range in words): Kelly Neuroblastoma cell proliferation
Procedure: Kelly Neuroblastoma cells were seeded at 1,000 cells per well in 384 well, white plates and were treated in a dose-dependent manner for 72 h.

EP300 = EP300 (Homo sapiens (Human), UniProt Q09472); experiment: Western blot for EP300 degradation in Kelly NB cells; assay type: cell-based; settings: 24 hours
Procedure: (§1) […] Whole cell lysates were collected using ice cold lysis buffer [300 mM NaCl, 50 mM Tris-HCl, pH 7.5, 0.5% Triton X-100, 1% sodium dodecyl sulfate (SDS), 1 mM dithiothreitol (DTT) (Invitrogen™), Roche®'s cOmplete™ protease inhibitor cocktail (1:000), 25 units/mL Benzonase®] and blotted at a protein concentration of 30 μg for EP300 and CBP and 10 μg for histone H3 and H3K27ac. Lysates were also blotted for bromodomain-containing protein 4 (BRD4). Lysates were resolved in NuPAGE™ 3-8% Tris-Acetate polyacrylamide gels (EA03785BOX, Invitrogen™) for EP300 and CBP and Bolt 4-12% Bis-Tris polyacrylamide gels (NW04125BOX, Invitrogen™) for H3 and H3K27ac. Afterwards, gels were transferred to nitrocellulose membranes (LC2001, Invitrogen™). […] Visualization was performed on an Odyssey infrared imaging system (LiCor® Biosciences).

H3K27ac = experiment: Western blot for H3K27ac levels in Kelly NB cells; assay type: cell-based; settings: 24 hours; for acetylation levels (immunoblot): at 1 μM; for H3K27ac / acetylation levels (immunoblot): concentration not given
Procedure: Kelly Neuroblastoma cells were seeded at 1,000,000 cells per well in 6 well plates and were treated in a dose-dependent manner for 24 hours. Whole cell lysates were collected using ice cold lysis buffer [300 mM NaCl, 50 mM Tris-HCl, pH 7.5, 0.5% Triton X-100, 1% sodium dodecyl sulfate (SDS), 1 mM dithiothreitol (DTT) (Invitrogen™), Roche®'s cOmplete™ protease inhibitor cocktail (1:000), 25 units/mL Benzonase®] and blotted at a protein concentration of 30 μg for EP300 and CBP and 10 μg for histone H3 and H3K27ac. Lysates were also blotted for bromodomain-containing protein 4 (BRD4). Lysates were resolved in NuPAGE™ 3-8% Tris-Acetate polyacrylamide gels (EA03785BOX, Invitrogen™) for EP300 and CBP and Bolt 4-12% Bis-Tris polyacrylamide gels (NW04125BOX, Invitrogen™) for H3 and H3K27ac. Afterwards, gels were transferred to nitrocellulose membranes (LC2001, Invitrogen™). […] Visualization was performed on an Odyssey infrared imaging system (LiCor® Biosciences).

[2] = molecular target: bromodomain-containing protein 4 (BRD4) (Homo sapiens (Human), UniProt O60885); experiment: Western blot for BRD4 levels in Kelly NB cells; assay type: cell-based; settings: 24 h, at 1 μM
Procedure: Kelly Neuroblastoma cells were seeded at 1,000,000 cells per well in 6 well plates and were treated in a dose-dependent manner for 24 hours. Whole cell lysates were collected using ice cold lysis buffer [300 mM NaCl, 50 mM Tris-HCl, pH 7.5, 0.5% Triton X-100, 1% sodium dodecyl sulfate (SDS), 1 mM dithiothreitol (DTT) (Invitrogen™), Roche®'s cOmplete™ protease inhibitor cocktail (1:000), 25 units/mL Benzonase®] and blotted at a protein concentration of 30 μg for EP300 and CBP and 10 μg for histone H3 and H3K27ac. Lysates were also blotted for bromodomain-containing protein 4 (BRD4). Lysates were resolved in NuPAGE™ 3-8% Tris-Acetate polyacrylamide gels (EA03785BOX, Invitrogen™) for EP300 and CBP and Bolt 4-12% Bis-Tris polyacrylamide gels (NW04125BOX, Invitrogen™) for H3 and H3K27ac. Afterwards, gels were transferred to nitrocellulose membranes (LC2001, Invitrogen™). Primary and secondary antibodies used included anti-p300 at 1:500 dilution (ab10485, Abcam®), anti-CBP at 1:500 dilution (D6C5, Cell Signaling Technology®), anti-Actin at 1:5000 dilution (3700S, Cell Signaling Technology®), anti-H3 at 1:1000 dilution (4499S, Cell Signaling Technology®), anti-H3K27ac at 1:1000 dilution (ab4729, Abcam®), IRDye®800 goat anti-rabbit at 1:5000 dilution (926-32211, LiCor® Biosciences) and IRDye®680 goat anti-mouse at 1:5000 dilution (926-68070, LiCor®). Visualization was performed on an Odyssey infrared imaging system (LiCor® Biosciences).

CBP = CBP (Homo sapiens (Human), UniProt Q92793); experiment: Western blot for CBP degradation in Kelly NB cells; assay type: cell-based; settings: 24 hours
Procedure: as §1

CBP bromodomain = CBP bromodomain (Homo sapiens (Human), UniProt Q92793); experiment: CBP (Bromodomain) AlphaScreen Assay; assay type: binding; settings: FIG. 6
Procedure: Assays were performed with minimal modifications from the manufacturer's protocol (PerkinElmer®, USA). All reagents were diluted in 50 mM 4-(2-hydroxyethyl)-1-piperazineethanesulfonic acid (HEPES), 150 mM NaCl, 0.1% w/v bovine serum albumin (BSA), 0.01% w/v Tween® 20, pH 7.5 and allowed to equilibrate to room temperature prior to addition to plates. After addition of AlphaScreen® acceptor beads to master solutions, all subsequent steps were performed under low light conditions. […] Plates were spun down at 150×g, 100 nL of compound in dimethyl sulfoxide (DMSO) from stock plates were added by pin transfer using a Janus® Workstation (PerkinElmer®, USA). The streptavidin-coated donor beads (10 ng/ml final) were added as with previous the solution in a 2×10 μL volume. Following this addition, plates were sealed with foil to prevent light exposure and evaporation. The plates were spun down again at 150×g.

[3] = Kelly Neuroblastoma cells, class symbols, read-out: IC50 of inventive bispecific compounds
[4] = Kelly Neuroblastoma cells, read-out: IC50

Sequence of CBP (Q92793 whole entry): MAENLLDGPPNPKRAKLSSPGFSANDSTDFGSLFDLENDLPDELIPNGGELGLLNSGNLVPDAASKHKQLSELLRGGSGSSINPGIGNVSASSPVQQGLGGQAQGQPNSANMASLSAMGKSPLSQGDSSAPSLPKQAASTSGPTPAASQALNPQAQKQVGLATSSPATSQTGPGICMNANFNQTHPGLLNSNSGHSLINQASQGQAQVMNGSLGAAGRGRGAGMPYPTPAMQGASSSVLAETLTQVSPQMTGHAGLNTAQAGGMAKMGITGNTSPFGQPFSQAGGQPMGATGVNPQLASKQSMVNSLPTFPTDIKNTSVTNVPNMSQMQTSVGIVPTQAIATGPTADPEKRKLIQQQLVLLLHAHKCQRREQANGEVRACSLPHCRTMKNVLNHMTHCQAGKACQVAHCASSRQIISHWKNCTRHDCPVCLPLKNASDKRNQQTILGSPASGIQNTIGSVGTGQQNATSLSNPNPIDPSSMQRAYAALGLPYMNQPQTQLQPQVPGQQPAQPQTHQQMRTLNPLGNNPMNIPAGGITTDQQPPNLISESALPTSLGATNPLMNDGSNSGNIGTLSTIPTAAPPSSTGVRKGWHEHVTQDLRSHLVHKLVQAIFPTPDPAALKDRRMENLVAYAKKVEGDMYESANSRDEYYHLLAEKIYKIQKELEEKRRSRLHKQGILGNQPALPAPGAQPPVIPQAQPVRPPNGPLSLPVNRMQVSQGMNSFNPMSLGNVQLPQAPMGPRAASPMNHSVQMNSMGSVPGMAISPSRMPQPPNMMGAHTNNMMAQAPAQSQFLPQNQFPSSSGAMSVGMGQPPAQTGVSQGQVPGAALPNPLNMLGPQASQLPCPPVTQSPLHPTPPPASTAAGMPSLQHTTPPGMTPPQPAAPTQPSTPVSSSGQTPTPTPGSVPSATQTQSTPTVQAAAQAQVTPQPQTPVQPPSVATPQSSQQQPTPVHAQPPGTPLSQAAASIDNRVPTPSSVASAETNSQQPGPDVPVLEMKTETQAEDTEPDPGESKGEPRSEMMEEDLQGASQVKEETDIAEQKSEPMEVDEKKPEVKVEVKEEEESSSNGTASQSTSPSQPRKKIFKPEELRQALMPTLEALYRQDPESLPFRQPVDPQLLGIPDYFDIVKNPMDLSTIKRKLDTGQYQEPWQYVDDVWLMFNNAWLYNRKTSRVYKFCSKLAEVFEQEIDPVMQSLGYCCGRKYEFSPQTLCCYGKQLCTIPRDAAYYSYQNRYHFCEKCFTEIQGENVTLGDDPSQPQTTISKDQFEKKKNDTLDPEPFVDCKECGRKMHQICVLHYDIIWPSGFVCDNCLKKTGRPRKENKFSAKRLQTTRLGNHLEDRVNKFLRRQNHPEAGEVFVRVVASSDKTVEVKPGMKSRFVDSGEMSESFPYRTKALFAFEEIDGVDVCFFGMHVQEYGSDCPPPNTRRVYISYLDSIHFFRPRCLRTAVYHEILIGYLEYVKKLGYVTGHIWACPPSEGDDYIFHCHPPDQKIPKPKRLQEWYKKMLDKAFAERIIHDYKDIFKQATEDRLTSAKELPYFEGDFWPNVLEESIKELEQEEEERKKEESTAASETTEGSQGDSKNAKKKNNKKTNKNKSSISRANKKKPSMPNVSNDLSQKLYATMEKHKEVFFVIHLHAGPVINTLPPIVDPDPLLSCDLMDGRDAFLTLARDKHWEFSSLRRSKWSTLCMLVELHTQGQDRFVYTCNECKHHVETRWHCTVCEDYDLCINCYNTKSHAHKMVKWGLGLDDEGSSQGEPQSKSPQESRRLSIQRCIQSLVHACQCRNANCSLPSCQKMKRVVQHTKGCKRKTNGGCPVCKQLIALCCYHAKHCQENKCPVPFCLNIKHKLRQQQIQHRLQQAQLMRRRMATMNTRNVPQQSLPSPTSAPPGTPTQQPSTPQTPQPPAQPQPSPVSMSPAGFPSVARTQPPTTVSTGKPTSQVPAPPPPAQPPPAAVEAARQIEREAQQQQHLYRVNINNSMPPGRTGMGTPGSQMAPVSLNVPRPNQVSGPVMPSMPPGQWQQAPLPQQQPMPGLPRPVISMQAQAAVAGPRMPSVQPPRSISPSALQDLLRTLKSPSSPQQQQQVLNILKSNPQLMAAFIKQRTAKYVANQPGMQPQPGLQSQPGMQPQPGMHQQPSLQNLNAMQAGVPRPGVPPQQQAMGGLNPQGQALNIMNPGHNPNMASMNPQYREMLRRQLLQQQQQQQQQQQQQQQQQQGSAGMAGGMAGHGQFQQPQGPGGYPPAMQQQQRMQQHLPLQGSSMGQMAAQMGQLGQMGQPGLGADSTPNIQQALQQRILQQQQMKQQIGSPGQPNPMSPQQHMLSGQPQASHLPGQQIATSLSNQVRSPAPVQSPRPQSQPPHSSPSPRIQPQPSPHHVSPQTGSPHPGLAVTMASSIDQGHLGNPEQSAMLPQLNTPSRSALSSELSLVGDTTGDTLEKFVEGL
Sequence of EP300 (Q09472 whole entry): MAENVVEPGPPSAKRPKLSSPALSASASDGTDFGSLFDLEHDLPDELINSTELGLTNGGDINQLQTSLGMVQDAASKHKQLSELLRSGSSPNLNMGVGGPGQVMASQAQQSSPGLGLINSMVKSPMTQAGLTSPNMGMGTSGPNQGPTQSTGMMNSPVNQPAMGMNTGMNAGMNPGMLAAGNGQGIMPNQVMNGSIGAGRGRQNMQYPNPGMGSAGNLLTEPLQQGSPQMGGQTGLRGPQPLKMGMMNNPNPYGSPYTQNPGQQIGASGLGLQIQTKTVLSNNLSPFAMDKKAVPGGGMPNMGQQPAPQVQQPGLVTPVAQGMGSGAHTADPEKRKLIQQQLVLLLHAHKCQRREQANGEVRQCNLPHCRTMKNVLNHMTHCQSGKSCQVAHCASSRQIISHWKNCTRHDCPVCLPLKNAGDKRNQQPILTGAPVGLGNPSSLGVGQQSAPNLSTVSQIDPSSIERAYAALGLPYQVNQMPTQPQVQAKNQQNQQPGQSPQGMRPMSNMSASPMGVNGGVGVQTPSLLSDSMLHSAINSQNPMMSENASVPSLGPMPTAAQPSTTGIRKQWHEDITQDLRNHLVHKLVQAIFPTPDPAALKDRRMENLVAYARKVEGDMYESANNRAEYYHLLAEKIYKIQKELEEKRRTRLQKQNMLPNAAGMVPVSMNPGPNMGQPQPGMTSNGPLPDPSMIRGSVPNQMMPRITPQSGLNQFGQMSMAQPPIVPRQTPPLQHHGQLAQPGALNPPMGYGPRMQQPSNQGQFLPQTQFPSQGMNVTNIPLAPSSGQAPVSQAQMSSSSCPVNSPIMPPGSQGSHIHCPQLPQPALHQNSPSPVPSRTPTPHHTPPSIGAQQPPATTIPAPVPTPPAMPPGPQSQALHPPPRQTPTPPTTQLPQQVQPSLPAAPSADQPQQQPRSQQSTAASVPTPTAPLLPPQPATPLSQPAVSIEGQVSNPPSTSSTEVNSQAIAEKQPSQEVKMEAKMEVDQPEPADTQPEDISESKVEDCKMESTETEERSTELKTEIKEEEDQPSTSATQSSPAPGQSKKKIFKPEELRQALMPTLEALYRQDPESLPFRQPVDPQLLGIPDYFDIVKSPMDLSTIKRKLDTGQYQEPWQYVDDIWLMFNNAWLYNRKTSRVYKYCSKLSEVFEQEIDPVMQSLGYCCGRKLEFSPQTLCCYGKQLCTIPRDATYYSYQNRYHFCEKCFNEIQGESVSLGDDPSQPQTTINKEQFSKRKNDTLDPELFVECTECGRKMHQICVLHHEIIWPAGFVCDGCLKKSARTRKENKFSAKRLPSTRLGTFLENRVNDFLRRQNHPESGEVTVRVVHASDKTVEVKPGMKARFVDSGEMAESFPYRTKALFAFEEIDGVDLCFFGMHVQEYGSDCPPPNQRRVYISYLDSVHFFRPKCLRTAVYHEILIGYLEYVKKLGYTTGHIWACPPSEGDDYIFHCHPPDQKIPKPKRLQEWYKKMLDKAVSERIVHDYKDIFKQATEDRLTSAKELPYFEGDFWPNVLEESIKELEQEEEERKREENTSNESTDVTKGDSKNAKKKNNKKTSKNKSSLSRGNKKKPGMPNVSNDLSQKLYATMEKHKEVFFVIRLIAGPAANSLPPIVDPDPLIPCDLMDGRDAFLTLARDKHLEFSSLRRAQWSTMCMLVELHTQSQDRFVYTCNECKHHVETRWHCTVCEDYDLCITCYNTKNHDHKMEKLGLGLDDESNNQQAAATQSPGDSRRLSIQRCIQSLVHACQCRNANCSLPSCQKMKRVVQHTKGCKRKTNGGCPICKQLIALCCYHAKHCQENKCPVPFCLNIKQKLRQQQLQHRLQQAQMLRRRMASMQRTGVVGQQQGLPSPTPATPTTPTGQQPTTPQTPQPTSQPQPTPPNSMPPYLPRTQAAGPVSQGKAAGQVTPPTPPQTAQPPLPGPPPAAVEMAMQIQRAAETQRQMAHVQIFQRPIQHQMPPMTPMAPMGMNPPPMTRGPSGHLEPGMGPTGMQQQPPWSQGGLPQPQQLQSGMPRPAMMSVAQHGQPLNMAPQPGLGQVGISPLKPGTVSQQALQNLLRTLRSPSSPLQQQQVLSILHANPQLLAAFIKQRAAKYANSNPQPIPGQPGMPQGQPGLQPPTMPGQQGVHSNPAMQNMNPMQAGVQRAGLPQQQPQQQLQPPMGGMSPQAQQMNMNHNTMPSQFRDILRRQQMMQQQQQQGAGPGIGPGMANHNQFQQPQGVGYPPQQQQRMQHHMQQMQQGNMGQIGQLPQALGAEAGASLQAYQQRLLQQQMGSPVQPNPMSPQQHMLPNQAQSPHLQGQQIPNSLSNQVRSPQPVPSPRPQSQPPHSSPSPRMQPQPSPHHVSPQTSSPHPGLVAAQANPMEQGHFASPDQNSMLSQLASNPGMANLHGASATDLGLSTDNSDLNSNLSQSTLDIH
Sequence of CBP bromodomain (Q92793 1085-1192): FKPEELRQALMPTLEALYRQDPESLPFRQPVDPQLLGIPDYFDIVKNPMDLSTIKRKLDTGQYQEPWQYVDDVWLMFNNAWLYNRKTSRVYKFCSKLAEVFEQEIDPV

| Structure (SMILES) | IC50 [1, 3] [nM] | P300 degradation (immunoblot) (EP300; at 1 μM) | acetylation levels (immunoblot) (H3K27ac) | BRD4 degradation (immunoblot) [2] | CBP degradation (immunoblot) (CBP; at 1 μM) | IC50 [1, 4] [nM] | further results |
| --- | --- | --- | --- | --- | --- | --- | --- |
| Cc1noc(C)c1-c1ccn2c(NC3CCCCC3)c(CCc3ccc(NC(=O)COc4cccc5c4C(=O)N(C4CCC(=O)NC4=O)C5=O)cc3)nc2c1 (stereo not drawn) [Compound 12, N-(4-(2-(3-(cyclohexylamino)-7-(3,5-dimethylisoxazol-4-yl)imidazo[1,2-a]pyridin-2-yl)ethyl)phenyl)-2-((2-(2,6-dioxopiperidin-3-yl)-1,3-dioxoisoindolin-4-yl)oxy)acetamide] | 1000 to 10000 | noticeable degradation | reduction | observed |  |  |  |
| Cc1noc(C)c1-c1ccn2c(NC3CCCCC3)c(CCc3ccc(NC(=O)CCCCCNc4cccc5c4C(=O)N(C4CCC(=O)NC4=O)C5=O)cc3)nc2c1 (stereo not drawn) [Compound 11, N-(4-(2-(3-(cyclohexylamino)-7-(3,5-dimethylisoxazol-4-yl)imidazo[1,2-a]pyridin-2-yl)ethyl)phenyl)-6-((2-(2,6-dioxopiperidin-3-yl)-1,3-dioxoisoindolin-4-yl)amino)hexanamide] | 100 to 1000 | noticeable degradation | reduction | observed | noticeable degradation |  |  |
| Cc1noc(C)c1-c1ccc2nc(-c3ccc(N4CCN(C(=O)CCOCCOCCOCCNc5cccc6c5C(=O)N(C5CCC(=O)NC5=O)C6=O)CC4)cc3)c(NC3CCCCC3)n2c1 (stereo not drawn) [Compound 2, 4-((2-(2-(2-(3-(4-(4-(3-(cyclohexylamino)-6-(3,5-dimethylisoxazol-4-yl)imidazo[1,2-a]pyridin-2-yl)phenyl)piperazin-1-yl)-3-oxopropoxy)ethoxy)ethoxy)ethyl)amino)-2-(2,6-dioxopiperidin-3-yl)isoindoline-1,3-dione] | < 100 |  |  |  |  | 91.8 ± 6.58 | IC50 potency relative to A485 ([1]; Kelly Neuroblastoma cells, more potent than A485): about 10 fold; bound to CBP (bromodomain), range (CBP bromodomain): ~10 µM; EP300 degradation (immunoblot) (EP300; concentration not given): potent degrader; CBP degradation (immunoblot) (CBP; concentration not given): potent degrader; H3K27ac / acetylation levels (immunoblot) (H3K27ac): evident reduction |
| Cc1noc(C)c1-c1ccn2c(NCc3ccccc3)c(-c3ccc(N4CCN(C(=O)COc5cccc6c5C(=O)N(C5CCC(=O)NC5=O)C6=O)CC4)cc3)nc2c1 (stereo not drawn) [Compound 7, 4-(2-(4-(4-(3-(benzylamino)-7-(3,5-dimethylisoxazol-4-yl)imidazo[1,2-a]pyridin-2-yl)phenyl)piperazin-1-yl)-2-oxoethoxy)-2-(2,6-dioxopiperidin-3-yl)isoindoline-1,3-dione] | < 100 | noticeable degradation |  |  | noticeable degradation | 33.1 | IC50 values (range in words) [1]: micromolar and sub-micromolar range; H3K27ac / acetylation levels (immunoblot) (H3K27ac): slight reduction |
| Cc1ncsc1-c1ccc(CNC(=O)[C@H]2C[C@H](O)CN2C(=O)[C@H](NC(=O)COCCOCCOCCNC(=O)CCC(=O)Nc2ccc(CCc3nc4cc(-c5c(C)noc5C)ccn4c3NC3CCCCC3)cc2)C(C)(C)C)cc1 [Compound 15, N1-(4-(2-(3-(cyclohexylamino)-7-(3,5-dimethylisoxazol-4-yl)imidazo[1,2-a]pyridin-2-yl)ethyl)phenyl)-N4-((R)-13-((2R,4S)-4-hydroxy-2-((4-(4-methylthiazol-5-yl)benzyl)carbamoyl)pyrrolidine-1-carbonyl)-14,14-dimethyl-11-oxo-3,6,9-trioxa-12-azapentadecyl)succinamide] | > 10000 |  |  |  |  |  |  |
| Cc1noc(C)c1-c1ccc2c(c1)nc([C@@H]1CCCC(=O)N1c1ccc(F)c(F)c1)n2[C@H]1CC[C@H](NC(=O)CCCCCNc2cccc3c2C(=O)N(C2CCC(=O)NC2=O)C3=O)CC1 (stereo partly drawn) [Compound 30, N-((1S,4r)-4-(2-((S)-1-(3,4-difluorophenyl)-6-oxopiperidin-2-yl)-5-(3,5-dimethylisoxazol-4-yl)-1H-benzo[d]imidazol-1-yl)cyclohexyl)-6-((2-(2,6-dioxopiperidin-3-yl)-1,3-dioxoisoindolin-4-yl)amino)hexanamide] | 100 to 1000 |  |  |  |  |  |  |
| Cc1noc(C)c1-c1ccn2c(NC3CCCCC3)c(CCc3ccc(NC(=O)CCCCCCCNc4cccc5c4C(=O)N(C4CCC(=O)NC4=O)C5=O)cc3)nc2c1 (stereo not drawn) [Compound 13, N-(4-(2-(3-(cyclohexylamino)-7-(3,5-dimethylisoxazol-4-yl)imidazo[1,2-a]pyridin-2-yl)ethyl)phenyl)-8-((2-(2,6-dioxopiperidin-3-yl)-1,3-dioxoisoindolin-4-yl)amino)octanamide] | > 10000 |  |  |  |  |  |  |
| Cc1noc(C)c1-c1ccc2nc(-c3ccc(N4CCN(C(=O)CCOCCOCCOCCOCCOCCOCCNc5cccc6c5C(=O)N(C5CCC(=O)NC5=O)C6=O)CC4)cc3)c(NC3CCCCC3)n2c1 (stereo not drawn) [Compound 3, 4-((21-(4-(4-(3-(cyclohexylamino)-6-(3,5-dimethylisoxazol-4-yl)imidazo[1,2-a]pyridin-2-yl)phenyl)piperazin-1-yl)-21-oxo-3,6,9,12,15,18-hexaoxahenicosyl)amino)-2-(2,6-dioxopiperidin-3-yl)isoindoline-1,3-dione] | 100 to 1000 |  |  |  |  | 706 | IC50 values (range in words) [1]: micromolar and sub-micromolar range; P300 degradation (immunoblot) (EP300; at 10 μM): some degradation; CBP degradation (immunoblot) (CBP; at 10 μM): some degradation |
| Cc1noc(C)c1-c1ccc2c(c1)nc(CCc1ccc(NCCNC(=O)CCCCCNc3cccc4c3C(=O)N(C3CCC(=O)NC3=O)C4=O)cc1)n2CC(C)N1CCOCC1 (stereo not drawn) [Compound 28, N-(2-((4-(2-(5-(3,5-dimethylisoxazol-4-yl)-1-(2-morpholinopropyl)-1H-benzo[d]imidazol-2-yl)ethyl)phenyl)amino)ethyl)-6-((2-(2,6-dioxopiperidin-3-yl)-1,3-dioxoisoindolin-4-yl)amino)hexanamide] | > 10000 |  |  |  |  |  |  |
| Cc1noc(C)c1-c1ccn2c(NC3CCCCC3)c(CCc3ccc(NC(=O)CCOCCOCCOCCNc4cccc5c4C(=O)N(C4CCC(=O)NC4=O)C5=O)cc3)nc2c1 (stereo not drawn) [Compound 8, N-(4-(2-(3-(cyclohexylamino)-7-(3,5-dimethylisoxazol-4-yl)imidazo[1,2-a]pyridin-2-yl)ethyl)phenyl)-3-(2-(2-(2-((2-(2,6-dioxopiperidin-3-yl)-1,3-dioxoisoindolin-4-yl)amino)ethoxy)ethoxy)ethoxy)propanamide] | 100 to 1000 | noticeable degradation | reduction | observed | noticeable degradation |  |  |
